Data taken from ChEMBL document CHEMBL1145609, “Design and synthesis of tacrine-ferulic acid hybrids as multi-potent anti-Alzheimer drug candidates” (Bioorg Med Chem Lett, 2008).

Experiments:
Acetylcholinesterase = Acetylcholinesterase (Electrophorus electricus, UniProt O42275)
Description: Inhibition of electric eel AchE by Ellman's assay

Butyrylcholinesterase = Butyrylcholinesterase (Equus caballus, UniProt Q9N1N9)
Sequence of Butyrylcholinesterase (Q9N1N9 whole entry): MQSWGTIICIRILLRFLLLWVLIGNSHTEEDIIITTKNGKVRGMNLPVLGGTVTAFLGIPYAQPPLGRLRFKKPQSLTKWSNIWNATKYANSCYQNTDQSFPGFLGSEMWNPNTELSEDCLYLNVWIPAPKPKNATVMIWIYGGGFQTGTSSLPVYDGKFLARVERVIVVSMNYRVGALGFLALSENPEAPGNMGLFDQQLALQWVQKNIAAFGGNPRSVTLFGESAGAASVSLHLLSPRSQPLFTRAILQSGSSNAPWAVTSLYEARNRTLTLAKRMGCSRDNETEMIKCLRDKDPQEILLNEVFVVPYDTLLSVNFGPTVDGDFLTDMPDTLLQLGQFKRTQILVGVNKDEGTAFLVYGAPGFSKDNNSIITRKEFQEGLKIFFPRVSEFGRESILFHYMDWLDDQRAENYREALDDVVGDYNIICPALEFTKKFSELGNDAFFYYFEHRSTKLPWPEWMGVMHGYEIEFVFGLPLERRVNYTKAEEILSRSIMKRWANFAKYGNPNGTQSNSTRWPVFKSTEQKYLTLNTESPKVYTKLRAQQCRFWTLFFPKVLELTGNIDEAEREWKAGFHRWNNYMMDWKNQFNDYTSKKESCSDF
Description: Inhibition of equine BChE by Ellman's assay

Sequence of Acetylcholinesterase (O42275 whole entry): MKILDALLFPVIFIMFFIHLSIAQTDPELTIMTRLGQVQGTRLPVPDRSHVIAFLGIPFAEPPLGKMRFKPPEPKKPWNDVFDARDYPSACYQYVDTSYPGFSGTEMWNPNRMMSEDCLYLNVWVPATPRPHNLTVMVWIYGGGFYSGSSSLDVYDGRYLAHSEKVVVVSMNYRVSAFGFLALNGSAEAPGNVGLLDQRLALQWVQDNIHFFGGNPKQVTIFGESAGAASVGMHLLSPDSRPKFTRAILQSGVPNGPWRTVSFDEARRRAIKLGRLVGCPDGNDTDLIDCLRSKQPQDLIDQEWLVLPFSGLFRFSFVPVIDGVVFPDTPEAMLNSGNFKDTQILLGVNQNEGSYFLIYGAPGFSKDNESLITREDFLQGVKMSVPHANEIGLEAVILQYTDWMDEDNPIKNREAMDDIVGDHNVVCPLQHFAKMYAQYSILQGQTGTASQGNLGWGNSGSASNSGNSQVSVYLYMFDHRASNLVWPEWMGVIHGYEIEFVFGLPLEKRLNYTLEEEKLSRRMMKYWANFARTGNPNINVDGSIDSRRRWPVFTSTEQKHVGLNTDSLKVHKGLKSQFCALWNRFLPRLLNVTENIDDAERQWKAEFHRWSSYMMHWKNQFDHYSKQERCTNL

| SMILES | IC50 (Acetylcholinesterase) [nM] | IC50 (Butyrylcholinesterase) [nM] |
| --- | --- | --- |
| COc1cc(/C=C/C(=O)NCCCNc2c3c(nc4ccccc24)CCCC3)ccc1O | 33 | 27 |
| COc1cc(/C=C/C(=O)NCCCCNc2c3c(nc4ccccc24)CCCC3)ccc1O | 7.6 | 5.9 |
| COc1cc(/C=C/C(=O)NCCCCCCCCNc2c3c(nc4ccccc24)CCCC3)ccc1O | 9.6 | 12.7 |
| NCCNc1c2c(nc3ccccc13)CCCC2 | 54.8 | 12.3 |
| NCCCCCNc1c2c(nc3ccccc13)CCCC2 | 3.2 | 5 |
| NCCCNc1c2c(nc3ccccc13)CCCC2 | 69.5 | 5.5 |
| NCCCCNc1c2c(nc3ccccc13)CCCC2 | 23.6 | 7.1 |
| COc1cc(/C=C/C(=O)NCCCCCNc2c3c(nc4ccccc24)CCCC3)ccc1O | 4.4 | 6.7 |
| COc1cc(/C=C/C(=O)NCCNc2c3c(nc4ccccc24)CCCC3)ccc1O | 38.6 | 34.1 |
| NCCCCCCCCNc1c2c(nc3ccccc13)CCCC2 | 3.5 | 1.4 |
